Measured values taken from PMC8800111 (The Journal of Biological Chemistry, 2021).

Tests used:
Type in all cases: cell-based
[1] = biological target: proteins of U3A human fibrosarcoma cells (4462 proteins detected) (Homo sapiens, UniProt O75116); conditions: protein ROCK2; U3A cells
[2] = biological target: proteins of U3A human fibrosarcoma cells (4462 proteins detected) (Homo sapiens, UniProt O95218); conditions: protein ZRANB2, U3A cells
[3] = biological target: proteins of U3A human fibrosarcoma cells (4462 proteins detected) (Homo sapiens, UniProt O95292); conditions: protein VAPB; U3A cells
[4] = biological target: proteins of U3A human fibrosarcoma cells (4462 proteins detected) (Homo sapiens, UniProt P42766); conditions: protein RPL35; U3A cells
[5] = biological target: proteins of U3A human fibrosarcoma cells (4462 proteins detected) (Homo sapiens, UniProt P48556); conditions: protein PSMD8; U3A cells
[6] = biological target: proteins of U3A human fibrosarcoma cells (4462 proteins detected) (Homo sapiens, UniProt P49441); conditions: protein INPP1, U3A cells
[7] = biological target: proteins of U3A human fibrosarcoma cells (4462 proteins detected) (Homo sapiens, UniProt P49588); conditions: protein AARS, U3A cells
[8] = biological target: proteins of U3A human fibrosarcoma cells (4462 proteins detected) (Homo sapiens, UniProt P62873); conditions: protein GNB1; U3A cells
[9] = biological target: proteins of U3A human fibrosarcoma cells (4462 proteins detected) (Homo sapiens, UniProt Q01826); conditions: protein SATB1; U3A cells
[10] = biological target: proteins of U3A human fibrosarcoma cells (4462 proteins detected) (Homo sapiens, UniProt Q12933); conditions: protein TRAF2; U3A cells
[11] = biological target: proteins of U3A human fibrosarcoma cells (4462 proteins detected) (Homo sapiens, UniProt Q13131); conditions: protein PRKAA1; U3A cells
[12] = biological target: proteins of U3A human fibrosarcoma cells (4462 proteins detected) (Homo sapiens, UniProt Q14790); conditions: protein CASP8; U3A, 10 μM, 2 h
[13] = biological target: proteins of U3A human fibrosarcoma cells (4462 proteins detected) (Homo sapiens, UniProt Q15084); conditions: protein PDIA6; U3A cells
[14] = biological target: proteins of U3A human fibrosarcoma cells (4462 proteins detected) (Homo sapiens, UniProt Q15459); conditions: protein SF3A1; U3A cells
[15] = biological target: proteins of U3A human fibrosarcoma cells (4462 proteins detected) (Homo sapiens, UniProt Q1ED39); conditions: protein KNOP1; U3A cells
[16] = biological target: proteins of U3A human fibrosarcoma cells (4462 proteins detected) (Homo sapiens, UniProt Q7L5N1); conditions: protein COPS6; U3A cells
[17] = biological target: proteins of U3A human fibrosarcoma cells (4462 proteins detected) (Homo sapiens, UniProt Q8N6T3); conditions: protein ARFGAP1; U3A, 10 μM, 2 h
[18] = biological target: proteins of U3A human fibrosarcoma cells (4462 proteins detected) (Homo sapiens, UniProt Q8N9N8); conditions: protein EIF1AD; U3A, 10 μM, 2 h
[19] = biological target: proteins of U3A human fibrosarcoma cells (4462 proteins detected) (Homo sapiens, UniProt Q8NFI3); conditions: protein ENGASE; soluble abundance after heat, U3A cells
[20] = biological target: proteins of U3A human fibrosarcoma cells (4462 proteins detected) (Homo sapiens, UniProt Q96AC1); conditions: protein FERMT2; U3A cells
[21] = biological target: proteins of U3A human fibrosarcoma cells (4462 proteins detected) (Homo sapiens, UniProt Q96PV6); conditions: protein LENG8; U3A, 10 μM, 2 h
[22] = biological target: proteins of U3A human fibrosarcoma cells (4462 proteins detected) (Homo sapiens, UniProt Q96Q89); conditions: protein KIF20B; U3A cells
[23] = biological target: proteins of U3A human fibrosarcoma cells (4462 proteins detected) (Homo sapiens, UniProt Q96T37); conditions: protein RBM15; U3A cells
[24] = biological target: proteins of U3A human fibrosarcoma cells (4462 proteins detected) (Homo sapiens, UniProt Q9BT78); conditions: protein COPS4; U3A cells
[25] = biological target: proteins of U3A human fibrosarcoma cells (4462 proteins detected) (Homo sapiens, UniProt Q9H7X7); conditions: protein IFT22; U3A, 10 μM, 2 h
[26] = biological target: proteins of U3A human fibrosarcoma cells (4462 proteins detected) (Homo sapiens, UniProt Q9H9Q2); conditions: protein COPS7B; U3A cells
[27] = biological target: proteins of U3A human fibrosarcoma cells (4462 proteins detected) (Homo sapiens, UniProt Q9HC36); conditions: protein RNMTL1; U3A cells
[28] = biological target: proteins of U3A human fibrosarcoma cells (4462 proteins detected) (Homo sapiens, UniProt Q9NP64); conditions: protein ZCCHC17; soluble abundance after heat, U3A cells
[29] = biological target: proteins of U3A human fibrosarcoma cells (4462 proteins detected) (Homo sapiens, UniProt Q9UJ68); conditions: protein MSRA, U3A cells
[30] = biological target: proteins of U3A human fibrosarcoma cells (4462 proteins detected) (Homo sapiens, UniProt Q9Y3D3); conditions: protein MRPS16; U3A, 10 μM, 2 h

proteins of U3A human fibrosarcoma cells (4462 proteins detected) (Homo sapiens, UniProt Q13131), sequence (Q13131 whole entry): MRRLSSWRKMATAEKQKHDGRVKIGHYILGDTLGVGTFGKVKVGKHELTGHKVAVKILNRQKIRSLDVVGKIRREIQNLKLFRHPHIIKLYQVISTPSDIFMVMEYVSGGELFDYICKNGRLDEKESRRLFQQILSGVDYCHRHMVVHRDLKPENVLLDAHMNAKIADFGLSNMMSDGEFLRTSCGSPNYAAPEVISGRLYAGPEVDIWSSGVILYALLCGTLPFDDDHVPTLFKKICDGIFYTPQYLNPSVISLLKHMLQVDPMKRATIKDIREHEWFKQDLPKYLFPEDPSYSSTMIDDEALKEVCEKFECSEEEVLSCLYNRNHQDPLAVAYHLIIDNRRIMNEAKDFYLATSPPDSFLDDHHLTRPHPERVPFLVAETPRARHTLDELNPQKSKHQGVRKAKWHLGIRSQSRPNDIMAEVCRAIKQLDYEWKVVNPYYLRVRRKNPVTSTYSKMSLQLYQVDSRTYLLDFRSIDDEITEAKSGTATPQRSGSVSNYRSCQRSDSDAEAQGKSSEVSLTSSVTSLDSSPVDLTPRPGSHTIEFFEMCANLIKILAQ
proteins of U3A human fibrosarcoma cells (4462 proteins detected) (Homo sapiens, UniProt Q96AC1), sequence (Q96AC1 whole entry): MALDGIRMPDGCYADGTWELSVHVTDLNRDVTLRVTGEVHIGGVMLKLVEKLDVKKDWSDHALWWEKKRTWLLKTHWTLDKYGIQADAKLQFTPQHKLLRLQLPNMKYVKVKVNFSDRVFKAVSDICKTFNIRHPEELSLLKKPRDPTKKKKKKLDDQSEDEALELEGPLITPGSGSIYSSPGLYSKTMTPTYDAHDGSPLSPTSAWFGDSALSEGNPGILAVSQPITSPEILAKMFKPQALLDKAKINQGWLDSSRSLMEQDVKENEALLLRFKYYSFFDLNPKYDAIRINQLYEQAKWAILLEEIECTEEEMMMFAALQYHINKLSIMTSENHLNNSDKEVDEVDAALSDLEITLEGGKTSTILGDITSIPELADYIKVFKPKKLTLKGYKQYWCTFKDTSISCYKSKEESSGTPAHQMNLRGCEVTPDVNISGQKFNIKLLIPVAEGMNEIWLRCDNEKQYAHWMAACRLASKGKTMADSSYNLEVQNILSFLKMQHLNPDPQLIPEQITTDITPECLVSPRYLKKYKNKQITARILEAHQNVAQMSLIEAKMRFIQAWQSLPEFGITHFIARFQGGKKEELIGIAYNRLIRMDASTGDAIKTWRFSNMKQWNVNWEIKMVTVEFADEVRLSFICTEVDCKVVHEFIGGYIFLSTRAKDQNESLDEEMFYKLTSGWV
proteins of U3A human fibrosarcoma cells (4462 proteins detected) (Homo sapiens, UniProt O95292), sequence (O95292 whole entry): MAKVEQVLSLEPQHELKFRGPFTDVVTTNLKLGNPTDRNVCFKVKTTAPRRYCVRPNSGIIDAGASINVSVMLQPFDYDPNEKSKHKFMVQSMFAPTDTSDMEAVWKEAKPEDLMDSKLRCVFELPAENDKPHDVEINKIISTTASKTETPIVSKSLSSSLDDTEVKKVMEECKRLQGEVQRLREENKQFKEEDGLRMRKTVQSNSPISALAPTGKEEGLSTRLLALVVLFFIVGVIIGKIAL
proteins of U3A human fibrosarcoma cells (4462 proteins detected) (Homo sapiens, UniProt Q9HC36), sequence (Q9HC36 41-420): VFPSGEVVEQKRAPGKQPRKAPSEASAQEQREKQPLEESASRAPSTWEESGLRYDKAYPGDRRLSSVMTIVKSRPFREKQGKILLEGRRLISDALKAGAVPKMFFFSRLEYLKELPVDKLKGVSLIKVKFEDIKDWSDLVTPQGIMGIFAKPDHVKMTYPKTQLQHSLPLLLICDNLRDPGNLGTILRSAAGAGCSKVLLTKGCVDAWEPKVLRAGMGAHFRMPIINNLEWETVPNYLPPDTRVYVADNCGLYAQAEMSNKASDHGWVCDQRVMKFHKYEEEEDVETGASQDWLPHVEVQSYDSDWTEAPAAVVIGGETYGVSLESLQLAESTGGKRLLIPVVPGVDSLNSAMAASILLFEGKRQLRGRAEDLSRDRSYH
proteins of U3A human fibrosarcoma cells (4462 proteins detected) (Homo sapiens, UniProt P49588), sequence (P49588 whole entry): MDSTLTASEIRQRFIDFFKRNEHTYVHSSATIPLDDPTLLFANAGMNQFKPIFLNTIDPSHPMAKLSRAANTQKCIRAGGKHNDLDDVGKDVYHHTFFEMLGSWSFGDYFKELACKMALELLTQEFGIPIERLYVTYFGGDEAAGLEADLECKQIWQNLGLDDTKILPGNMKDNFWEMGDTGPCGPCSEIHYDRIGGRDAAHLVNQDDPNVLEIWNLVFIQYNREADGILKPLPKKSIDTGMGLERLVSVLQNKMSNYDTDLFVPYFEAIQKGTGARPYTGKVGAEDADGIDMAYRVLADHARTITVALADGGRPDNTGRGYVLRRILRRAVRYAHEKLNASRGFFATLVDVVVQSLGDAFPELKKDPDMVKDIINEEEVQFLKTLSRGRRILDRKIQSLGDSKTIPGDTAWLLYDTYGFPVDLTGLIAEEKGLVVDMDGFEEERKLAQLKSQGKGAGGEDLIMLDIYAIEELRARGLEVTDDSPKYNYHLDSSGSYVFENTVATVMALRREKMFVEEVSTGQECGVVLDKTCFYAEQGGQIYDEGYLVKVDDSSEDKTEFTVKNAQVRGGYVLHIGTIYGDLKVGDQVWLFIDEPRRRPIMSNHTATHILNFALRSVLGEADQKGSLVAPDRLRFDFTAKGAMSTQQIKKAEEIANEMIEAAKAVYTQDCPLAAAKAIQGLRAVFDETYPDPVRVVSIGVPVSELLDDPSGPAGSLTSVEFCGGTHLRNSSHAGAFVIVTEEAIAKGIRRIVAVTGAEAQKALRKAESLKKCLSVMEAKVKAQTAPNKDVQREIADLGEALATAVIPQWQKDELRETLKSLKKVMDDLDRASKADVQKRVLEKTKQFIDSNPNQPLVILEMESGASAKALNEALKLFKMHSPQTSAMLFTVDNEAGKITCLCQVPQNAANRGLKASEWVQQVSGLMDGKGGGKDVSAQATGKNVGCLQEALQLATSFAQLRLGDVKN
proteins of U3A human fibrosarcoma cells (4462 proteins detected) (Homo sapiens, UniProt P48556), sequence (P48556 whole entry): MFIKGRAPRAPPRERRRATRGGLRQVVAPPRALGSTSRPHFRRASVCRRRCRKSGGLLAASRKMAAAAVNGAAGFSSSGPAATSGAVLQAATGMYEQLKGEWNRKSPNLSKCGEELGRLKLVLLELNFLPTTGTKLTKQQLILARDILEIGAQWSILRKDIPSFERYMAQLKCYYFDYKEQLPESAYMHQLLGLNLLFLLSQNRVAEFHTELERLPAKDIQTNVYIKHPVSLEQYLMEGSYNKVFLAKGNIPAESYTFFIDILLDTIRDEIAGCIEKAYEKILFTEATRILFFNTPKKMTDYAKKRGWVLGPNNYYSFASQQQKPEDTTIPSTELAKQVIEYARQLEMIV
proteins of U3A human fibrosarcoma cells (4462 proteins detected) (Homo sapiens, UniProt Q9H7X7), sequence (Q9H7X7 whole entry): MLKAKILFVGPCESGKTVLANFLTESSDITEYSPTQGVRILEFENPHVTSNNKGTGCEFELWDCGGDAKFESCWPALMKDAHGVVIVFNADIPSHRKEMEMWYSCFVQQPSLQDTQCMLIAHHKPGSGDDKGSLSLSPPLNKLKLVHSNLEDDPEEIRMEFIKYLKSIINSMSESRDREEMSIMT
proteins of U3A human fibrosarcoma cells (4462 proteins detected) (Homo sapiens, UniProt Q14790), sequence (Q14790 217-479): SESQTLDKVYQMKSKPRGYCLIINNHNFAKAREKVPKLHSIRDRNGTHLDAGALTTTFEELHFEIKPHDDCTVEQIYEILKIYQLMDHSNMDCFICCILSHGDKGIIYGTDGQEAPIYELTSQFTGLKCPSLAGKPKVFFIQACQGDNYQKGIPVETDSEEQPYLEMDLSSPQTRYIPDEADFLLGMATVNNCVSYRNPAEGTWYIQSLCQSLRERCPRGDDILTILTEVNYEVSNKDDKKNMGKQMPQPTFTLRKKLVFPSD
proteins of U3A human fibrosarcoma cells (4462 proteins detected) (Homo sapiens, UniProt Q1ED39), sequence (Q1ED39 whole entry): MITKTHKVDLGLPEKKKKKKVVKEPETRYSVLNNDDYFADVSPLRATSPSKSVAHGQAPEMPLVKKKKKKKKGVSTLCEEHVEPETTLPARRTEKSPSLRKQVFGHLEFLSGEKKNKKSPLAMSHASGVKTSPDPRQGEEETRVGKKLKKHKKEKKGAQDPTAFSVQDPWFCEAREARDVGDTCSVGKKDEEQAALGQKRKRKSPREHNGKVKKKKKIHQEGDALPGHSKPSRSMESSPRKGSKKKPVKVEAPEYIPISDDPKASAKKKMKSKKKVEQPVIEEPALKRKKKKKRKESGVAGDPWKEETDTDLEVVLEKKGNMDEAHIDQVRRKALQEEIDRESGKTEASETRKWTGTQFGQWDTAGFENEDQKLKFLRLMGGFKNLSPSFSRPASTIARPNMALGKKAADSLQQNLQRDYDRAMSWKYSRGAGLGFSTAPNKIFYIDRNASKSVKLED
proteins of U3A human fibrosarcoma cells (4462 proteins detected) (Homo sapiens, UniProt Q7L5N1), sequence (Q7L5N1 whole entry): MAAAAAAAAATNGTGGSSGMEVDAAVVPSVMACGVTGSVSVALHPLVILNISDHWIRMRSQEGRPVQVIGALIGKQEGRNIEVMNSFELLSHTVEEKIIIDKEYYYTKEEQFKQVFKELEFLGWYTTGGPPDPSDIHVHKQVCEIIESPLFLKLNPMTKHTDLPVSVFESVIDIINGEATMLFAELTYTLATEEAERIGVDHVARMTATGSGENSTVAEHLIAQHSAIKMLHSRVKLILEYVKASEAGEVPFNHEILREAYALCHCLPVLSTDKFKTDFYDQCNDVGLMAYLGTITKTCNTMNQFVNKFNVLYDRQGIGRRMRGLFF
proteins of U3A human fibrosarcoma cells (4462 proteins detected) (Homo sapiens, UniProt P49441), sequence (P49441 whole entry): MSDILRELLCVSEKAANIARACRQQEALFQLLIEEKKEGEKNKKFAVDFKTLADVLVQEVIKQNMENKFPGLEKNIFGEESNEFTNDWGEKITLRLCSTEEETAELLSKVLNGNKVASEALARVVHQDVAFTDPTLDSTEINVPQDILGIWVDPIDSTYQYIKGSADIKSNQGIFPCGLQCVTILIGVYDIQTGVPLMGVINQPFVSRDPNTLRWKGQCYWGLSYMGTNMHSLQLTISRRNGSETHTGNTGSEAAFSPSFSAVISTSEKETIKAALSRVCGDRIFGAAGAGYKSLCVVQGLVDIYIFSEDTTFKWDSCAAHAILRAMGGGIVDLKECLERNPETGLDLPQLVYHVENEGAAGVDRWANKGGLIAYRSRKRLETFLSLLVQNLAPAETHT

CCc1nc(N)nc(N)c1-c1ccc(Cl)cc1 [pyrimethamine]
Log2 (PYR/DMSO) [1]: 0.17 | Log2 (PYR/DMSO) [2]: -0.04 | Log2 (PYR/DMSO) [3]: 0.19 | Log2 (PYR/DMSO) [4]: 0.20 | Log2 (PYR/DMSO) [5]: 0.17 | Log2 (PYR/DMSO) [6]: -0.04 | Log2 (PYR/DMSO) [7]: -0.04 | Log2 (PYR/DMSO) [8]: 0.22 | Log2 (PYR/DMSO) [9]: 0.21 | Log2 (PYR/DMSO) [10]: 0.16 | Log2 (PYR/DMSO) [11]: 0.19 | Log2 (PYR/DMSO), CASP8 [12]: 0.34 | Log2 (PYR/DMSO) [13]: 0.16 | Log2 (PYR/DMSO) [14]: 0.16 | Log2 (PYR/DMSO) [15]: 0.17 | Log2 (PYR/DMSO) [16]: 0.16 | Log2 (PYR/DMSO), ARFGAP1 [17]: -0.14 | Log2 (PYR/DMSO), EIF1AD [18]: -0.14 | Log2 (PYR/DMSO) [19]: 0.15 | Log2 (PYR/DMSO) [20]: 0.16 | Log2 (PYR/DMSO), LENG8 [21]: 0.27 | Log2 (PYR/DMSO) [22]: 0.23 | Log2 (PYR/DMSO) [23]: 0.17 | Log2 (PYR/DMSO) [24]: 0.20 | Log2 (PYR/DMSO), IFT22 [25]: -0.16 | Log2 (PYR/DMSO) [26]: 0.19 | Log2 (PYR/DMSO) [27]: 0.21 | Log2 (PYR/DMSO) [28]: 0.15 | Log2 (PYR/DMSO) [29]: -0.04 | Log2 (PYR/DMSO), MRPS16 [30]: 0.24
